Data taken from patent US20160046616A1, “NRF2 SMALL MOLECULE INHIBITORS FOR CANCER THERAPY” (THE JOHNS HOPKINS UNIVERSITY, priority 2013, published 2016).

Tests used:
[1] = tested on: H1437 NRF2-ARE-Fluc stable cell line; assay: H1437 Nrf2 assay: NRF2-ARE firefly luciferase reporter gene assay; assay type: cell-based; settings: Homo sapiens, NCI-H1437, H1437 NRF2-ARE-Fluc stable cell line; read-out: Potency of inhibition, H1437
Excerpt: H1437 is another NSCLC cell line with LOF Keap1 activity and constitutive translocation of NRF2 into the nucleus. A firefly luciferase reporter construct driven by a minimal promoter of NRF2-specific ARE is stably expressed in the H1437 cells. This cell line was used as a confirmation assay to make sure hits identified from primary screening and that passed counterscreen assays worked in different cell types with a constitutively active NRF2 pathway (deficiency in Keap1).
This assay was very similar to the primary assay except that the cell line was changed. […] The final concentration of DMSO was maintained at 0.46%. Control compounds Budesonide and Staurosporine were both added at a concentration of 2 mM and Budesonide was also added as a 1:10 titration, starting at 200 μM, to achieve dose-response. After an 18-24 hour incubation at 37° C., 95% humidity, and 5% CO2, 1 μL of 5× CellTiter-Fluor non-lytic cell viability assay reagent (Promega, Madison Wis.) was added into the each well of the plates. The plates were then incubated for 30 minutes at room temperature before they were read on a ViewLux plate imager (Perkin Elmer, Waltham Mass.) using an excitation wavelength of 405 nm and an emission wavelength of 525 nm.
(§1) Representative compounds were assayed to assess the potency of inhibition in an A549 NRF2-ARE-Fluc stable cell line (A549 Nrf2 assay), in an H838 NRF2-ARE-Fluc stable cell line (H838 Nrf2 assay), and in an H1437 NRF2-ARE-Fluc stable cell line (H1437 Nrf2 assay) (see Table 3).

[2] = tested on: A549 NRF2-ARE-Fluc stable cell line; assay: A549 Nrf2 assay: NRF2-ARE firefly luciferase reporter gene assay; assay type: cell-based; settings: Homo sapiens, read-out: Potency of inhibition, A549
Excerpt: A549, the parental cell line, is a non-small-cell lung cancer (NSCLC) cell line with loss-of-function (LOF) Keap1 activity, thus NRF2 transcription factor constitutively translocates into the nucleus to activate the expression of downstream target genes of NRF2. A firefly luciferase reporter (Fluc) construct driven by a minimal promoter of NRF2-specific anti-oxidant responsive element (ARE) is stably expressed in the A549 cells. Compounds that reduce the translocation of NRF2 into the nucleus or prevent the interaction between NRF2 and ARE will lead to a decrease in luciferase activity.
The final concentration of DMSO was maintained at 0.46%. Control compounds Budesonide and Staurosporine were both added at a concentration of 2 mM and Budesonide also was added as a 1:10 titration, starting at 200 μM, to achieve dose-response. After an 18-24 hour incubation at 37° C., 95% humidity, and 5% CO2, 1 μL of 5× CellTiter-Fluor non-lytic cell viability assay reagent (Promega, Madison, Wis.) was added into the each well of the plates. The plates were then incubated for 30 minutes at room temperature before they were read on a ViewLux plate imager (Perkin Elmer, Waltham, Mass.) using an excitation wavelength of 405 nm and an emission wavelength of 525 nm.
A cell based reporter assay approach was used for the identification of agents that could inhibit Nrf2 mediated gene expression (FIG. 1). A549-ARE-luciferase cells express the luciferase gene driven by a minimal promoter and an enhancer element containing an NRF2 binding site (Antioxidant Response Element, ARE).
as §1

In the case of `O=C(Nc1ncc(Cc2ccc(C(F)(F)F)cc2)s1)c1cccc(-c2ccccc2)c1` [Compound 59], the IC50 [1] is reported as > 25 µM and the IC50 [2] is reported as 5 to 25 µM.
`Cc1ccccc1C(=O)N1CCc2cc(-c3nc(NC(=O)CC4CCN(C(=O)OC(C)(C)C)CC4)sc3C)ccc21` [Compound 60, tert-butyl 4-(2-((5-methyl-4-(1-(2-methylbenzoyl)indolin-5-yl)thiazol-2-yl)amino)-2-oxoethyl)piperidine-1-carboxylate] was tested, and the IC50 [1] was < 5 µM and the IC50 [2] was < 5 µM.
With `O=C(Nc1ncc(Cc2ccc(C(F)(F)F)cc2)s1)c1cccc(-c2ccccc2)n1` [Compound 61] the IC50 [1] was > 25 µM and the IC50 [2] was < 5 µM.
`O=C(Cc1ccccc1)Nc1cccc(-c2ccc(N3CCCCC3)cc2)n1` [Compound 63] was tested, and the IC50 [1] was > 25 µM and the IC50 [2] was > 25 µM.
With `CNc1ccc(-c2cccc(NC(=O)Cc3ccccc3)n2)cc1` [Compound 64, N-(6-(4-(methylamino)phenyl)pyridin-2-yl)-2-phenylacetamide] the IC50 [1] was > 25 µM and the IC50 [2] was 5 to 25 µM.
`Cc1ccccc1C(=O)N1CCc2cc(-c3cccc(N4CCOCC4)n3)ccc21` [Compound 65] gave an IC50 [1] of 5 to 25 µM and an IC50 [2] of 5 to 25 µM.
Work on `Cc1ccccc1C(=O)N1CCc2cc(-c3nc(NC(=O)CN4CCCCC4)sc3C)ccc21` [Compound 66] yielded an IC50 [1] of 5 to 25 µM and an IC50 [2] of 5 to 25 µM.
For `Cc1cnc(NC(=O)c2ccc(-c3cccc([N+](=O)[O-])c3)o2)s1` [Compound 67], the IC50 [1] was > 25 µM and the IC50 [2] was 5 to 25 µM.
With `Cc1ccccc1C(=O)N(C)c1ccc(-c2cccc(NC(=O)Cc3ccccc3)n2)cc1` [Compound 68] the IC50 [1] was 5 to 25 µM and the IC50 [2] was 5 to 25 µM.
With `Cc1ccccc1C(=O)N1CCc2cc(-c3nc(NC(=O)CN4CCN(C(=O)OC(C)(C)C)CC4)sc3C)ccc21` [Compound 69, tert-butyl 4-(2-((5-methyl-4-(1-(2-methylbenzoyl)indolin-5-yl)thiazol-2-yl)amino)-2-oxoethyl)piperazine-1-carboxylate] the IC50 [1] was < 5 µM and the IC50 [2] was < 5 µM.
For `Cc1ccccc1C(=O)N1CCc2cc(-c3nc(NC(=O)CN4CCNCC4)sc3C)ccc21` [Compound 70, N-(5-methyl-4-(1-(2-methylbenzoyl)indolin-5-yl)thiazol-2-yl)-2-(piperazin-1-yl)acetamide], the IC50 [1] was > 25 µM and the IC50 [2] was > 25 µM.
`Cc1ccccc1C(=O)Nc1ccc(-c2cccc(NC(=O)Cc3ccccc3)n2)cc1` [Compound 71] was tested, and the IC50 [1] was > 25 µM and the IC50 [2] was 5 to 25 µM.
With `Cc1ccccc1C(=O)N1CCc2cc(-c3nc(NC(=O)CN4CCN(C)CC4)sc3C)ccc21` [Compound 72] the IC50 [1] was 5 to 25 µM and the IC50 [2] was > 25 µM.
For `Cc1ccccc1C(=O)N1CCc2cc(-c3nc(NC(=O)CC4CCNCC4)sc3C)ccc21` [Compound 73], the IC50 [1] was 5 to 25 µM and the IC50 [2] was > 25 µM.
In the case of `O=C(CCc1ccccc1)Nc1ncc(Cc2ccc(C(F)(F)F)cc2)s1` [Compound 74], the IC50 [1] is reported as > 25 µM and the IC50 [2] is reported as > 25 µM.
With `Cc1ccccc1C(=O)N1CCc2cc(-c3nc(NC(=O)CC4CCN(C)CC4)sc3C)ccc21` [Compound 75] the IC50 [1] was 5 to 25 µM and the IC50 [2] was 5 to 25 µM.
In the case of `Cc1ccccc1C(=O)n1ccc2cc(-c3cccc(NC(=O)Cc4ccccc4)n3)cnc21` [Compound 76], the IC50 [1] is reported as > 25 µM and the IC50 [2] is reported as 5 to 25 µM.
`Cc1ccccc1C(=O)N1CCc2cc(-c3nc(NC(=O)CN4CCOCC4)sc3C)ccc21` [Compound 77] showed an IC50 [1] of 5 to 25 µM and an IC50 [2] of 5 to 25 µM.
For `O=C(Cc1ccccc1)Nc1cccc(-c2ccc(N3CCOCC3)cc2)n1` [Compound 78], the IC50 [1] was > 25 µM and the IC50 [2] was > 25 µM.
`Cc1ccccc1C(=O)N1CCc2cc(-c3nc(NC(=O)CC4CCCCC4)sc3C)ccc21` [Compound 79] was tested, and the IC50 [1] was 5 to 25 µM and the IC50 [2] was < 5 µM.
In the case of `Nc1ccc(-c2cccc(NC(=O)Cc3ccccc3)n2)cc1` [Compound 80, N-(6-(4-aminophenyl)pyridin-2-yl)-2-phenylacetamide], the IC50 [1] is reported as > 25 µM and the IC50 [2] is reported as > 25 µM.
`O=C(Nc1ncc(CN2CCOCC2)s1)c1ccc(-c2cccc([N+](=O)[O-])c2)o1` [Compound 81] showed an IC50 [1] of 5 to 25 µM and an IC50 [2] of 5 to 25 µM.
In the case of `O=C(Nc1ncc(-c2ccccc2)s1)c1ccc(-c2cccc([N+](=O)[O-])c2)o1` [Compound 82], the IC50 [1] is reported as > 25 µM and the IC50 [2] is reported as 5 to 25 µM.
For `O=C(Nc1ncc(Cc2ccc(C(F)(F)F)cc2)s1)c1ccc(-c2ccccc2)s1` [Compound 83], the IC50 [1] was > 25 µM and the IC50 [2] was > 25 µM.
`Cc1ccccc1C(=O)N1CCc2cc(-c3nc(NC(=O)CC4CCOCC4)sc3C)ccc21` [Compound 84] showed an IC50 [1] of 5 to 25 µM and an IC50 [2] of 5 to 25 µM.
For `O=C(Nc1nc(Cc2ccccc2)cs1)c1ccc(-c2cccc([N+](=O)[O-])c2)o1` [Compound 85], the IC50 [1] was > 25 µM and the IC50 [2] was 5 to 25 µM.
Work on `O=C(Nc1ncc(Cc2ccc(C(F)(F)F)cc2)s1)c1cnc(-c2ccccc2)o1` [Compound 86] yielded an IC50 [1] of 5 to 25 µM and an IC50 [2] of 5 to 25 µM.
In the case of `O=C(Nc1ncc(CN2CCCCC2)s1)c1ccc(-c2cccc([N+](=O)[O-])c2)o1` [Compound 87], the IC50 [1] is reported as > 25 µM and the IC50 [2] is reported as > 25 µM.
For `O=C(Cc1ccccc1)Nc1cccc(-c2cnc3[nH]ccc3c2)n1` [Compound 88, N-(6-(1H-pyrrolo[2,3-b]pyridin-5-yl)pyridin-2-yl)-2-phenylacetamide], the IC50 [1] was > 25 µM and the IC50 [2] was 5 to 25 µM.
With `O=C(O)c1ccc(CN2CCc3ccccc3C2)cc1` [Compound 90, 4-((3,4-dihydroisoquinolin-2(1H)-yl)methyl)benzoic acid] the IC50 [1] was > 25 µM and the IC50 [2] was > 25 µM.
With `O=C(Cc1ccccc1)Nc1cccc(-c2ccc3[nH]ncc3c2)n1` [Compound 91, N-(6-(1H-indazol-5-yl)pyridin-2-yl)-2-phenylacetamide] the IC50 [1] was > 25 µM and the IC50 [2] was 5 to 25 µM.
With `O=C(Cc1ccccc1)Nc1cccc(-c2ccc3[nH]c(-c4ccccc4)nc3c2)n1` [Compound 92] the IC50 [1] was > 25 µM and the IC50 [2] was 5 to 25 µM.
`Cc1ccccc1C(=O)N1CCc2cc(N3CCC(N)C3)ccc21` (centres unmarked) [Compound 93, (5-(3-aminopyrrolidin-1-yl)indolin-1-yl)(o-tolyl)methanone] was tested, and the IC50 [1] was > 25 µM and the IC50 [2] was 5 to 25 µM.
In the case of `Cc1ccccc1C(=O)N1CCc2cc(N3CCCC(N)C3)ccc21` (centres unmarked) [Compound 94, (5-(3-aminopiperidin-1-yl)indolin-1-yl)(o-tolyl)methanone], the IC50 [1] is reported as > 25 µM and the IC50 [2] is reported as > 25 µM.
For `Cc1ccccc1C(=O)n1ncc2cc(-c3cccc(NC(=O)Cc4ccccc4)n3)ccc21` [Compound 95], the IC50 [1] was 5 to 25 µM and the IC50 [2] was < 5 µM.
Work on `Cc1ccccc1C(=O)N1CCc2cc(N3CCC(NC(=O)Cc4ccccc4)C3)ccc21` (centres unmarked) [Compound 96] yielded an IC50 [1] of 5 to 25 µM and an IC50 [2] of 5 to 25 µM.
`Cc1ccccc1C(=O)N1CCc2cc(N3CCCC(NC(=O)Cc4ccccc4)C3)ccc21` (centres unmarked) [Compound 97] showed an IC50 [1] of 5 to 25 µM and an IC50 [2] of 5 to 25 µM.
Compound `O=C(Nc1ncc(Cc2ccc(C(F)(F)F)cc2)s1)c1ccc(Br)o1` [Compound 98] has an IC50 [1] of 5 to 25 µM and an IC50 [2] of 5 to 25 µM.
In the case of `O=C(Nc1ncc(Cc2ccc(C(F)(F)F)cc2)s1)c1cnc(-c2ccccc2)s1` [Compound 99], the IC50 [1] is reported as > 25 µM and the IC50 [2] is reported as 5 to 25 µM.
Work on `Cc1ccccc1C(=O)N1CCc2cc(-n3cc(NC(=O)Cc4ccccc4)cn3)ccc21` [Compound 100] yielded an IC50 [1] of 5 to 25 µM and an IC50 [2] of 5 to 25 µM.
In the case of `Cc1ccccc1C(=O)N1CCc2cc(-c3ccc(NC(=O)Cc4ccccc4)cn3)ccc21` [Compound 101], the IC50 [1] is reported as 5 to 25 µM and the IC50 [2] is reported as 5 to 25 µM.
`Cc1ccccc1C(=O)N1CCc2cc(-c3ccnc(NC(=O)Cc4ccccc4)n3)ccc21` [Compound 102] was tested, and the IC50 [1] was > 25 µM and the IC50 [2] was 5 to 25 µM.
With `O=C(NC1CCCN(Cc2ccccc2)C1)c1ccc(-c2cccc([N+](=O)[O-])c2)o1` (centres unmarked) [Compound 103] the IC50 [1] was > 25 µM and the IC50 [2] was > 25 µM.
In the case of `Cc1ccccc1C(=O)N1CCc2cc(-c3cncc(NC(=O)Cc4ccccc4)n3)ccc21` [Compound 104], the IC50 [1] is reported as 5 to 25 µM and the IC50 [2] is reported as < 5 µM.
For `O=C(Cc1ccccc1)Nc1cncc(Cl)n1` [Compound 105, N-(6-chloropyrazin-2-yl)-2-phenylacetamide], the IC50 [1] was > 25 µM and the IC50 [2] was > 25 µM.
With `O=C(Cc1ccccc1)Nc1ccc(Cl)nc1` [Compound 106, N-(6-chloropyridin-3-yl)-2-phenylacetamide] the IC50 [1] was > 25 µM and the IC50 [2] was > 25 µM.
